Assay results published in US10104891B2 (priority 2014, dated 2018).

Legend:
Format in all cases: in vivo
Phytophthora infestans = assay: whole plant or invertebrate; details: tomato late blight; control value vs untreated section
[1] = test system: Pseudoperonospora cubensis; assay: Test 2: control effect against cucumber downy mildew; details: control value vs untreated section
Protocol: (§1) A 10% wettable powder created according to the Pharmaceutical Formulation Example 1 was diluted with a Tween20 solution prepared to a concentration of 1/5000, then the compound of formula [1] was prepared to a concentration of 4 ppm. Further, the compound of formula [1] in Test 4 was adjusted to a concentration of 1,000 ppm.
<Test 2 Test of Control Effect Against Cucumber Downy Mildew>
(§2) Test suspension was applied to cucumber at the 2 leaf stage (species: Sagami hanjiro) in an amount of 20 ml per seedling. One day after application, zoospore suspension of Pseudoperonospora cubensis adjusted to a concentration of 1.0×10^4 units/ml was misted/inoculated, and the seedlings were incubated in a moist chamber adjusted to 22° C. for 16 hr. Then, the onset of the disease was induced in the chamber, and the lesion area rate on the leaves 5 days after inoculation was investigated to compute the control value using the formula below. control value={1−onset area rate of the leaves that were applied the test agent/onset area rate of untreated leaves}×100 Computational formula of the control value: […]

Plasmopara viticola = assay: Test 3: control effect against grape downy mildew; details: control value vs untreated section
Protocol: as §1
<Test 3 Test of Control Effect Against Grape Downy Mildew>
as §2, with “grape seedling” for “cucumber at the 2 leaf stage”, “Neomuscat)” for “Sagami hanjiro)”, “Plasmopara viticola” for “Pseudoperonospora cubensis”

Row | Structure (SMILES) | control value (Test 1) (Phytophthora infestans) | control value (Test 2) [1] | control value (Test 3) (Plasmopara viticola)
1 | CC(C)S(=O)(=O)Oc1cccc2c1COC(c1csc(C3CCN(C(=O)Cn4nc(C(F)F)cc4C(F)F)CC3)n1)OC2 (stereo not drawn) [Compound 1-53] | 100 | 100 | 100
2 | CCCCS(=O)(=O)Oc1cccc2c1COC(c1csc(C3CCN(C(=O)Cn4nc(C(F)F)cc4C(F)F)CC3)n1)OC2 (stereo not drawn) [Compound 1-54] | 100 | 100 | 100
3 | O=C(Cn1nc(C(F)F)cc1C(F)F)N1CCC(c2nc(C3OCc4c(F)c(F)c(F)c(F)c4CO3)cs2)CC1 [Compound 1-55] | 100 | 100 | 100
4 | Cc1cc(C(F)(F)F)nn1CC(=O)N1CCC(c2nc(C3OCc4cccc(-c5ccccc5)c4CO3)cs2)CC1 (stereo not drawn) [Compound 1-56] | 90 | 100 | 100
5 | O=C(Cn1nc(C(F)F)cc1C(F)F)N1CCC(c2nc(C3OCc4cccc(Cl)c4CO3)cs2)CC1 (stereo not drawn) [Compound 1-58] | 100 | 100 | 100
6 | CCCCCCCCS(=O)(=O)Oc1cccc2c1COC(c1csc(C3CCN(C(=O)Cn4nc(C(F)F)cc4C(F)F)CC3)n1)OC2 (stereo not drawn) [Compound 1-59] | 100 | 100 | 100
7 | O=C(Cn1nc(C(F)F)cc1C(F)F)N1CCC(c2nc(C3OCc4ccc(C(F)(F)F)cc4CO3)cs2)CC1 (stereo not drawn) [Compound 1-60] | 100 | 100 | 100
8 | O=C(Cn1nc(C(F)F)cc1C(F)F)N1CCC(c2nc(C3OCc4cc5c(cc4CO3)CCC5)cs2)CC1 [Compound 1-61, 4-[4-(1,5,7,8,9-pentahydro-3H-2,4-indenodioxepin-3-yl)-2-thiazolyl]-1-[2-[3,5-bis(difluoromethyl)-1H-pyrazole-1-yl]acetyl]piperidine] | 100 | 100 | 100
9 | CON=Cc1cccc2c1COC(c1csc(C3CCN(C(=O)Cn4nc(C(F)(F)F)cc4C)CC3)n1)OC2 (stereo not drawn) [Compound 1-63] | 100 | 100 | 100
10 | Cc1cc(OS(C)(=O)=O)c2c(c1C)COC(c1csc(C3CCN(C(=O)Cn4nc(C(F)(F)F)cc4C)CC3)n1)OC2 (stereo not drawn) [Compound 1-64] | 100 | 100 | 100
11 | Cc1cc(C(F)(F)F)nn1CC(=O)N1CCC(c2nc(C3OCc4c(Cl)ccc(OS(C)(=O)=O)c4CO3)cs2)CC1 (stereo not drawn) [Compound 1-65] | 100 | 100 | 100
12 | Cc1cc(C(F)(F)F)nn1CC(=O)N1CCC(c2nc(C3OCc4c(Br)ccc(OS(C)(=O)=O)c4CO3)cs2)CC1 (stereo not drawn) [Compound 1-66] | 100 | 100 | 100
13 | CC(C)S(=O)(=O)Oc1cccc2c1COC(c1csc(C3CCN(C(=O)Cn4nc(C(F)(F)F)cc4C(F)(F)F)CC3)n1)OC2 (stereo not drawn) [Compound 1-67] | 100 | 100 | 100
14 | CCCCS(=O)(=O)Oc1cccc2c1COC(c1csc(C3CCN(C(=O)Cn4nc(C(F)(F)F)cc4C(F)(F)F)CC3)n1)OC2 (stereo not drawn) [Compound 1-68] | 100 | 100 | 100
15 | Cc1cc(C(F)(F)F)nn1CC(=O)N1CCC(c2nc(C3OCc4cccc(C=NN(C)C)c4CO3)cs2)CC1 (stereo not drawn) [Compound 1-71] | 100 | 100 | 100
16 | O=C(Cn1nc(C(F)F)cc1C(F)F)N1CCC(c2nc(C3OCc4cccc(-c5ccccc5)c4CO3)cs2)CC1 (stereo not drawn) [Compound 1-73] | 90 | 100 | 100
17 | COc1ccc([N+](=O)[O-])c2c1COC(c1csc(C3CCN(C(=O)Cn4nc(C(F)F)cc4C(F)F)CC3)n1)OC2 (stereo not drawn) [Compound 1-74] | 100 | 100 | 100
18 | O=C(Cn1nc(C(F)F)cc1C(F)F)N1CCC(c2nc(C3OCc4ccccc4CO3)cs2)CC1 [Compound 1-76] | 100 | 100 | 100
19 | O=C(Cn1nc(C(F)F)cc1C(F)F)N1CCC(c2nc(C3OCc4cc5ccccc5cc4CO3)cs2)CC1 [Compound 1-77] | 100 | 100 | 100

Row | Structure (SMILES) | control value (Test 1) (Phytophthora infestans) | control value (Test 2) [1] | control value (Test 3) (Plasmopara viticola)
20 | O=C(Cn1nc(C(F)F)cc1C(F)F)N1CCC(c2nc(C3OCc4ccc(F)cc4CO3)cs2)CC1 (stereo not drawn) [Compound 1-80] | 100 | 100 | 100
21 | O=C(Cn1nc(C(F)F)cc1C(F)F)N1CCC(c2nc(C3OCc4ccc(C(F)(F)F)cc4CO3)cs2)CC1 (stereo not drawn) [Compound 1-81] | 100 | 100 | 100
22 | COc1ccc(Br)c2c1COC(c1csc(C3CCN(C(=O)Cn4nc(C(F)(F)F)cc4C(F)(F)F)CC3)n1)OC2 (stereo not drawn) [Compound 1-82] | 100 | 100 | 100
23 | COc1ccc([N+](=O)[O-])c2c1COC(c1csc(C3CCN(C(=O)Cn4nc(C(F)(F)F)cc4C(F)(F)F)CC3)n1)OC2 (stereo not drawn) [Compound 1-83] | 100 | 100 | 100
24 | O=C(Cn1nc(C(F)(F)F)cc1C(F)(F)F)N1CCC(c2nc(C3OCc4ccccc4CO3)cs2)CC1 [Compound 1-85] | 100 | 100 | 100
25 | COc1ccc(OC(F)(F)F)c2c1COC(c1csc(C3CCN(C(=O)Cn4nc(C(F)(F)F)cc4C)CC3)n1)OC2 (stereo not drawn) [Compound 1-86] | 100 | 100 | 100
26 | CS(=O)(=O)Oc1ccc(F)c2c1COC(c1csc(C3CCN(C(=O)Cn4nc(C(F)(F)F)cc4C(F)(F)F)CC3)n1)OC2 (stereo not drawn) [Compound 1-87] | 100 | 100 | 100
27 | CC1OC(c2csc(C3CCN(C(=O)Cn4nc(C(F)(F)F)cc4C(F)(F)F)CC3)n2)OCc2ccccc21 (stereo not drawn) [Compound 1-88] | 100 | 100 | 100
28 | O=C(Cn1nc(C(F)(F)F)cc1C(F)(F)F)N1CCC(c2nc(C3OCc4cc5ccccc5cc4CO3)cs2)CC1 [Compound 1-89] | 80 | 100 | 100
29 | CC(C)(C)c1ccc2c(c1)COC(c1csc(C3CCN(C(=O)Cn4nc(C(F)(F)F)cc4C(F)(F)F)CC3)n1)OC2 (stereo not drawn) [Compound 1-92] | 100 | 90 | 90
30 | O=C(Cn1nc(C(F)(F)F)cc1C(F)(F)F)N1CCC(c2nc(C3OCc4cccc(Cl)c4CO3)cs2)CC1 (stereo not drawn) [Compound 1-93] | 100 | 100 | 100
31 | Cc1cc(C(F)(F)F)nn1CC(=O)N1CCC(c2nc(C3OCc4cccc(OC(F)F)c4CO3)cs2)CC1 (stereo not drawn) [Compound 1-94] | 100 | 100 | 100
32 | Cc1cc(C(F)(F)F)nn1CC(=O)N1CCC(c2nc(C3OCc4ccc(Br)cc4CO3)cs2)CC1 (stereo not drawn) [Compound 1-98] | 100 | 100 | 100
33 | O=C(Cn1nc(C(F)F)cc1C(F)F)N1CCC(c2nc(C3OCc4ccc(Br)cc4CO3)cs2)CC1 (stereo not drawn) [Compound 1-99] | 100 | 100 | 100
34 | Cc1cc(C(F)(F)F)nn1CC(=O)N1CCC(c2nc(C3OCc4c(I)ccc(OS(C)(=O)=O)c4CO3)cs2)CC1 (stereo not drawn) [Compound 1-101] | 100 | 100 | 100
35 | Cc1cc(C(F)(F)F)nn1CC(=O)N1CCC(c2nc(C3OCc4c(Cl)ccc(OS(C)(=O)=O)c4CO3)cs2)CC1 (stereo not drawn) [Compound 1-102] | 100 | 100 | 100
36 | Cc1cc(C(F)(F)F)nn1CC(=O)N1CCC(c2nc(C3OCc4c(OS(C)(=O)=O)ccc(OS(C)(=O)=O)c4CO3)cs2)CC1 [Compound 1-103] | 100 | 100 | 100
37 | Cc1cc(C(F)(F)F)nn1CC(=O)N1CCC(c2nc(C3OCc4cccc(C#N)c4CO3)cs2)CC1 (stereo not drawn) [Compound 1-104] | 100 | 100 | 100
